# Values joined by “and” are separate entries in the source; they are usually repeats but may differ in a detail not shown here. Equal values may be shown once.
# Legend:
# [1] = single intravenous dose-escalation clinical trial, pharmacokinetics; type: in vivo; conditions: human, blood, healthy adults
# Method: In order to confirm the safety/PK/PD of the compound of the present invention during intravenous administration, the clinical trial was designed with random assignment, double-blind, placebo-controlled, single dose, and stepwise dose-escalation in healthy adults (Korean/Chinese) between the ages of 19 and 50.
# A stabilizer (200 mg), a freeze-drying auxiliary agent (200 mg), and the previously prepared fexuprazan hydrochloride (40 mg based on fexuprazan weight) were dissolved in water for injection (4 mL), and an appropriate amount of acid was added thereto to adjust the pH to 4.0. The prepared solution was put into a vial, dried by a freeze-drying method, and prepared as a freeze-drying agent.
# The freeze-dried composition prepared as above was used, but a total of 28 subjects of 4, 8, 8, and 8 subjects each were enrolled for four dose groups (10 mg, 20 mg, 40 mg, and 80 mg) based on fexuprazan weight, and each group was randomly assigned to test or control groups in the order that they passed the screening criteria at a ratio of 3:1. All test subjects completed safety, pharmacokinetic, and pharmacodynamic evaluations according to the planned clinical trial schedule.
# The medication was performed in the morning, and the patient was discharged from the hospital on the third day of medication. Subsequently, a close-out visit was performed between the 8th and 11th day of medication.
# (§1) Testing of the acidity (pH) in the gastrointestinal tract and gastric secretion promoting hormone gastrin were performed from 24 hours before medication to 24 hours after medication. Blood collection for pharmacokinetics and urine collection for pharmacokinetics were performed for 48 hours from the time of medication.
# After a single intravenous administration of four dose groups for fexuprazan, the dose proportionality of fexuprazan to the Cmax, AUClast, and AUCinf parameters was evaluated between doses of 10 mg and 80 mg. The log-transformed parameters and 95% confidence interval regression lines of each dose after a single administration are shown in Table 7 and FIG. 3, respectively. […] That is, it can be confirmed that the pK parameter of intravenous administration is proportional to the dose.
# Table 8 and FIG. 4 show the results of the Kruskal Wallis test for dose-normalized Cmax (Cmax/Dose), AUClast (AUClast/Dose), and AUCinf (AUCinf/Dose) between dose groups. […] That is, it can be seen that there is no significant difference between dose groups in the proportional relationship, and the appropriate dose for intravenous administration can be calculated indirectly through the appropriate dose for oral administration.
# [2] = system: acidity in the gastrointestinal tract; experiment: injection maintenance therapy test, acidity in the gastrointestinal tract; type: in vivo, human; conditions: healthy adults; for Fraction time pH ≥ 6 over 24 hours post-dose (duration %): 40 mg IV over 30 minutes then 4 mg/hr for 71.5 hours; for Fraction time pH ≥ 4 over 24 hours post-dose (duration %) / Mean pH / Median pH: 40 mg IV then 4 mg/hr for 71.5 hours
# Method: In order to confirm changes in PD values according to fexuprazan injection maintenance therapy, the test was conducted on eight healthy adults between the ages of 19 and 50. To the test subjects, a total of 100 ml of a solution obtained by mixing 40 mg of a freeze-dried preparation (40 mg/vial) prepared in the same manner as that used in Experimental Example 6, and physiological saline was administered intravenously for 30 minutes. Subsequently, on the first day, a total of 1 L of a solution obtained by mixing 94 mg of freeze-dried formulation (40 mg/vial) and physiological saline was administered intravenously as a maintenance dose for 23.5 hours. On the second and third days, a total of 1 L of a solution obtained by mixing 96 mg of freeze-dried formulation (40 mg/vial) and physiological saline was administered intravenously for 24 hours. That is, as a maintenance dose, a total of 3 L of a solution of 286 mg of lyophilized formulation (40 mg/vial) mixed with physiological saline was administered intravenously for 71.5 hours at a rate of 4 mg/hr. The acidity in the gastrointestinal tract was tested on the first and third days, respectively, and the results are shown in Table 14 and FIG. 15 below.
# [3] = oral vs intravenous two-way crossover clinical trial, pharmacokinetics / bioavailability; type: in vivo; conditions: human, blood, healthy adults; for Cmax: n 8
# Text: Therefore, in order to compare the safety/PK/PD of the compound of the present invention during single intravenous administration and during single oral administration and derive the bioavailability, the clinical trial was designed as a randomized, open-label, single-dose, two-period, two-way crossover trial in healthy adults. The selection/exclusion criteria were the same as in Experimental Example 4. A total of 8 subjects were enrolled, and four subjects each were randomly assigned to sequence group 1 or sequence group 2 in the order in which they passed the screening criteria. All test subjects completed safety, pharmacokinetic, and pharmacodynamic evaluations according to the planned clinical trial schedule.
# A screening visit was performed 3 to 28 days before the start of the clinical trial, and hospital admission was performed 2 days before medication. The first phase medication was performed according to the order group randomly assigned on the morning of the day. A stabilizer (200 mg), a freeze-drying auxiliary agent (200 mg), and the previously prepared fexuprazan hydrochloride (40 mg based fexuprazan weight) were dissolved in water for injection (4 mL), an appropriate amount of acid was added thereto. A composition whose pH was adjusted to 4.0 was administered intravenously, or an excipient (100 mg), a disintegrant (5 mg), and the previously prepared fexuprazan hydrochloride (40 mg based on fexuprazan weight) were mixed and compressed to prepare a tablet, which were administered orally. The hospital discharge was performed on the third day of medication. The second phase medication was performed on the morning of the 8th after hospital admission on the 6th day after the first phase medication. Hospital discharge was performed on the 10th day of medication. Subsequently, a close-out visit was performed between 15 and 18 days after medication (FIG. 6).
# as §1
# [4] = intravenous administration (40 mg)
structure (smiles),measurement,setting,value
"CNCc1cn(S(=O)(=O)c2cccc(F)c2)c(-c2ccc(F)cc2F)c1OC [Fexuprazan, 1-(5-(2,4-difluorophenyl)-1-((3-fluorophenyl)sulfonyl)-4-methoxy-1H-pyrrol-3-yl)-N-methylmethanamine]",AUC(0-inf),[1]; single intravenous 10 mg,240 ± 31.3 ng·h/mL
same,AUC(0-t),[1]; single intravenous 10 mg,235 ± 32.3 ng·h/mL
same,clearance,[1]; single intravenous 10 mg,702 mL/min
same,half-life,[1]; single intravenous 10 mg,9.04 ± 0.85 h
same,Cmax,[1]; single intravenous 10 mg (N = 3),93.7 ± 13.9 ng/mL
same,AUC(0-inf),[1]; single intravenous 20 mg,514 ± 113 ng·h/mL
same,AUC(0-t),[1]; single intravenous 20 mg,502 ± 111 ng·h/mL
same,clearance,[1]; single intravenous 20 mg,677 mL/min
same,half-life,[1]; single intravenous 20 mg,8.61 ± 1.89 h
same,Cmax,[1]; single intravenous 20 mg (N = 6),185 ± 32.3 ng/mL
same,AUC(0-inf),[1]; single intravenous 40 mg,1100 ± 238 ng·h/mL
same,AUC(0-t),[1]; single intravenous 40 mg,1070 ± 225 ng·h/mL
same,clearance,[1]; single intravenous 40 mg,630 mL/min
same,half-life,[1]; single intravenous 40 mg,8.84 ± 0.96 h
same,Cmax,[1]; single intravenous 40 mg (N = 6),321 ± 75.7 ng/mL
same,AUC(0-inf),[1]; single intravenous 80 mg,2380 ± 301 ng·h/mL
same,AUC(0-t),[1]; single intravenous 80 mg,2290 ± 271 ng·h/mL
same,clearance,[1]; single intravenous 80 mg,567 mL/min
same,half-life,[1]; single intravenous 80 mg,10.2 ± 1.84 h
same,Cmax,[1]; single intravenous 80 mg (N = 6),633 ± 165 ng/mL
same,Fraction time pH ≥ 6 over 24 hours post-dose (duration %),[2]; Day 1,65.40 ± 18.67%
same,Fraction time pH ≥ 6 over 24 hours post-dose (duration %),[2]; Day 3,76.33 (±15.98) % and 76.33 ± 15.98%
same,Fraction time pH ≥ 4 over 24 hours post-dose (duration %),[2]; Day 1,97.87 ± 1.43%
same,Mean pH,[2]; Day 1,6.17 ± 0.36
same,Median pH,[2]; Day 1,6.28 ± 0.32
same,Fraction time pH ≥ 4 over 24 hours post-dose (duration %),[2]; Day 3,99.85 ± 0.40%
same,Mean pH,[2]; Day 3,6.39 ± 0.35
same,Median pH,[2]; Day 3,6.44 ± 0.28
same,AUC(0-inf),[3]; [4],1150 ± 279 ng·h/mL
same,AUC(0-t),[3]; [4],1110 ng·h/mL
same,Tmax,[3]; [4],0.25 h
same,half-life,[3]; [4],9.53 ± 2.42 h
same,Cmax,[3]; [4],277 ng/mL
same,AUC(0-inf),[3]; oral administration (40 mg),556 ± 299 ng·h/mL
same,AUC(0-t),[3]; oral administration (40 mg),536 ng·h/mL
same,Tmax,[3]; oral administration (40 mg),2.09 h
same,half-life,[3]; oral administration (40 mg),9.38 ± 1.6 h
same,Cmax,[3]; oral administration (40 mg) tablet,49.9 ng/mL

# — patent publication US20240415808A1, “Dosage Regimen for Fexuprazan Injection Composition” (Daewoong Pharmaceutical Co., Ltd., priority 2021, published 2024)
